Test results as given in publication PMC8949600, “In Vitro & In Vivo Studies on Identifying and Designing Temporin-1CEh from the Skin Secretion of Rana chensinensis as the Optimised Antibacterial Prototype Drug” (Pharmaceutics, 2022).
Values after ≈ are worked out from the molar mass of the structure shown. Read-outs that look alike come from different tables or passages of the source. Bridge positions count the residues as written; N and C are the ends. Peptide text beside a SMILES is read from it. I, II: the chains in the order shown.

Tests used:
E. coli (ATCC 8739) [1] = type: cell-based
Procedure: (§1) A measure of 5 × 10^5 CFU/mL of bacterial suspension including 2-fold dilution peptides (ranging from 1 µM to 512 µM) was incubated in 96-well plates for 16–20 h at 37 °C. For the positive and negative control, 200 mg/L of final concentration of norfloxacin and 1% DMSO were applied, respectively. […] Subsequently, 10 µL of the solution in each clear well was dropped on a Mueller–Hinton agar (MHA) plate and incubated at 37 °C for 16–20 h. The lowest concentration without colony growth was considered as the MBCs.
(§2) Mueller–Hinton broth (MHB) at pH 6.0 and 8.0 as well as MHB containing 10% of Fetal Bovine Serum (FBS), 150 mM of NaCl, 1 mM of MgCl2 and 4 µM of FeCl3, respectively, were prepared. In particular, the pathogens were diluted by the preprepared mediums to a final concentration of 5 × 10^5 CFU/mL after growing to the logarithmic phase, and other operations followed the MIC assay.

E. faecalis (NCTC 12697) = type: cell-based
Procedure: as §1, §2

[2] = tested on: K. pneumoniae (ATCC 43816); type: cell-based
Procedure: as §1, §2

MRSA (NCTC 12493) = type: cell-based
Procedure: as §1, §2

[3] = tested on: P. aeruginosa (ATCC 27853); type: cell-based
Procedure: as §1, §2

[4] = tested on: S. aureus (ATCC CRM 6538); type: cell-based
Procedure: as §1, §2

[5] = tested on: E. coli (ATCC 8739) biofilm; type: cell-based
Procedure: (§3) The anti-biofilm activities were tested on S. aureus and E. coli, as indicated previously. For the positive and negative control, 20 mg/mL of vancomycin and 1% DMSO were applied, respectively, in both assays. In addition, 0.1% Crystal Violet was used as the biofilm colouring agent.

[6] = tested on: S. aureus (ATCC CRM 6538) biofilm; type: cell-based
Procedure: as §3

E. coli (ATCC 8739) [7] = test: Membrane permeability assay (SYTOX GREEN); type: cell-based
Text: (§4) In order to test the permeability percentage of Temporin-1CEh and its analogues against S. aureus and E. coli, the SYTOX-GREEN nucleic acid stain was used in the assay indicated before. Tryptic soy broth (TSB) and Luria–Bertani (LB) broth were used as the media for S. aureus and E. coli, respectively.

[8] = tested on: S. aureus (ATCC CRM 6538); test: Membrane permeability assay (SYTOX GREEN); type: cell-based
Text: as §4

S. aureus = test: Galleria mellonella larvae infection model, S. aureus; type: in vivo; settings: at a concentration of 20 mg/kg; G. mellonella larvae
Procedure: (§5) In this assay, the larvae of the wax moth (Galleria mellonella) were used as the infection model. The larvae (Livefood UK Ltd., Rooks Bridge, UK) were selected between 225 and 275 mg (9 larvae per group in a Petri dish). For the positive and negative controls, 50 mg/kg of vancomycin (25 mg/kg of ampicillin for E. coli) and PBS were employed. Final concentration of S. aureus and E. coli cells injected was 5 × 10^5 and 5 × 10^6 CFU/larva, respectively. The assay was performed as described before and the number of alive larvae was recorded every 12 h.

E. coli = test: Galleria mellonella larvae infection model, E. coli; type: in vivo; settings: all tested concentrations; G. mellonella larvae, 5 × 10^6 CFU/larva
Procedure: as §5

[9] = Aggregation at high concentration (observation); type: physicochemical; settings: at a high concentration
[10] = tested on: erythrocytes from defibrinated horse blood; test: Haemolysis assay; settings: at 256 μM; horse erythrocytes
Text: The erythrocytes from defibrinated horse blood (TCS Biosciences Ltd., Buckingham, UK) were used to perform the haemolysis assay, as described previously [27]. Equal volumes of PBS and 2% (v/v) of the non-ionic detergent, Triton X-100 (Sigma–Aldrich, St. Louis, MO, USA) in PBS solution, were used as negative and positive controls, respectively. HC50 was defined as the mean peptide concentration producing 50% haemolysis.

E. coli (ATCC 8739) [11] = settings: MIC of Temporin-1CEa ref 29; cited from earlier work
Text: (§6) Table 2 The MICs and MBCs of Temporin-1CEh and its analogues as well as Temporin-1CEa against the S. aureus (ATCC CRM 6538), MRSA (NCTC 12493), E. faecalis (NCTC 12697), E. coli (ATCC 8739), P. aeruginosa (ATCC 27853) and K. pneumonia (ATCC 43816), as well as the MICs of Temporin-1CEa against S. aureus and E. coli. | column: MIC/MBC (μM) / Temporin-1CEa

[12] = tested on: S. aureus (ATCC CRM 6538); settings: MIC of Temporin-1CEa ref 29; cited from earlier work
Text: as §6

[13] = tested on: erythrocytes from defibrinated horse blood; settings: cited from earlier work
Procedure: The calculated HC50 of Temporin-1CEh was 152.6 μM compared to that of Temporin-1CEa which was 160 μM [29]. Several modified strategies were used to optimise their antibacterial activity.

What does the source list for `CC[C@H](C)[C@H](NC(=O)[C@H](CCCCNC(=O)[C@H](CCCCN)NC(=O)[C@H](Cc1c[nH]c2ccccc12)NC(=O)[C@@H]1CCCN1C(=O)[C@@H](NC(=O)[C@H](Cc1c[nH]c2ccccc12)NC(=O)[C@H](CCCCN)NC(=O)[C@@H](N)CCCCN)C(C)C)NC(=O)[C@H](CCCCN)NC(=O)[C@H](Cc1c[nH]c2ccccc12)NC(=O)[C@@H]1CCCN1C(=O)[C@@H](NC(=O)[C@H](Cc1c[nH]c2ccccc12)NC(=O)[C@H](CCCCN)NC(=O)[C@@H](N)CCCCN)C(C)C)C(=O)N[C@@H](C)C(=O)N[C@@H](CC(N)=O)C(=O)N[C@H](C(=O)N[C@@H](CC(C)C)C(N)=O)[C@@H](C)CC` [Peptide T1CEh-KKPWW2] (I: H-KKWVPWKKIANIL-NH2 / II: H-KKWVPWK; amide I:8-II:C; N-terminus assumed)?
MBC (E. coli (ATCC 8739) [1]; ATCC 8739): 2 µM (≈ 5.15 µg/mL); MIC (E. coli (ATCC 8739) [1]; ATCC 8739): 2 µM (≈ 5.15 µg/mL); MIC (E. coli (ATCC 8739) [1]; ATCC 8739, pH 6): 2 µM (≈ 5.15 µg/mL); MIC (E. coli (ATCC 8739) [1]; ATCC 8739, pH 7): 2 µM (≈ 5.15 µg/mL); MIC (E. coli (ATCC 8739) [1]; ATCC 8739, pH 8): 2 µM (≈ 5.15 µg/mL); decrease of MIC comparing with that of T1CEh-KKPWW (E. coli (ATCC 8739) [1]; E. coli): twofold; decrease of MIC comparing with that of T1CEh-KKPWW (E. faecalis (NCTC 12697); E. faecalis): four-fold; MBC (E. faecalis (NCTC 12697); NCTC 12697): 64 µM (≈ 165 µg/mL); MIC (E. faecalis (NCTC 12697); NCTC 12697): 32 µM (≈ 82.4 µg/mL); MIC (E. faecalis (NCTC 12697); NCTC 12697, pH 6): 128 µM (≈ 330 µg/mL); MIC (E. faecalis (NCTC 12697); NCTC 12697, pH 7): 32 µM (≈ 82.4 µg/mL); MIC (E. faecalis (NCTC 12697); NCTC 12697, pH 8): 64 µM (≈ 165 µg/mL); MBC ([2]; ATCC 43816): 8 µM (≈ 20.6 µg/mL); MIC ([2]; ATCC 43816): 4 µM (≈ 10.3 µg/mL); MIC ([2]; ATCC 43816, pH 6): 8 µM (≈ 20.6 µg/mL); MIC ([2]; ATCC 43816, pH 7): 4 µM (≈ 10.3 µg/mL); MIC ([2]; ATCC 43816, pH 8): 4 µM (≈ 10.3 µg/mL); decrease of MIC comparing with that of T1CEh-KKPWW (MRSA (NCTC 12493); MRSA): four-fold; MBC (MRSA (NCTC 12493); NCTC 12493): 16 µM (≈ 41.2 µg/mL); MIC (MRSA (NCTC 12493); NCTC 12493): 8 µM (≈ 20.6 µg/mL); MIC (MRSA (NCTC 12493); NCTC 12493, pH 6): 16 µM (≈ 41.2 µg/mL); MIC (MRSA (NCTC 12493); NCTC 12493, pH 7): 8 µM (≈ 20.6 µg/mL); MIC (MRSA (NCTC 12493); NCTC 12493, pH 8): 2 µM (≈ 5.15 µg/mL); MBC ([3]; ATCC 27853): 16 µM (≈ 41.2 µg/mL); MIC ([3]; ATCC 27853): 8 µM (≈ 20.6 µg/mL); MIC ([3]; ATCC 27853, pH 6): 32 µM (≈ 82.4 µg/mL); MIC ([3]; ATCC 27853, pH 7): 8 µM (≈ 20.6 µg/mL); MIC ([3]; ATCC 27853, pH 8): 8 µM (≈ 20.6 µg/mL); decrease of MIC comparing with that of T1CEh-KKPWW ([3]; P. aeruginosa): twofold; MBC ([4]; ATCC CRM 6538): 8 µM (≈ 20.6 µg/mL); MIC ([4]; ATCC CRM 6538): 4 µM (≈ 10.3 µg/mL); MIC ([4]; ATCC CRM 6538, pH 6): 8 µM (≈ 20.6 µg/mL); MIC ([4]; ATCC CRM 6538, pH 7): 4 µM (≈ 10.3 µg/mL); MIC ([4]; ATCC CRM 6538, pH 8): 2 µM (≈ 5.15 µg/mL); MBEC [5]: > 256 µM; MBIC [5]: 8 µM; MBEC [6]: > 256 µM; MBIC [6]: 32 µM; permeability rates compared with that of Temporin-1CEh (E. coli (ATCC 8739) [7]): higher permeability rates; permeability rates compared with that of Temporin-1CEh [8]: higher permeability rates; mortality of S. aureus infected larvae (S. aureus): significantly reduced the mortality; mortality of E. coli infected larvae (E. coli): reduced the mortality; aggregation [9]: aggregation can be found in T1CEh-KKPWW2 at a high concentration, achieving hydrogel; haemolysis rate [10]: 63%

Which MIC (E. coli (ATCC 8739) [11]) does the source give for FVDLKKIANIINSIF-NH2 [Temporin-1CEa] here?
The MIC was >100 µM.

And the MIC [12]?
The MIC was 13.1 µM.

And the HC50 [13]?
The HC50 was 160 µM.
